Assay: ORAC value (Oxygen Radical Absorbing Capacity)
Details: ratio to other antioxidants; no test described

Structure (SMILES): CCN(CC)CCn1c(=O)c(Cc2ccc(OC)cc2)nc2ccccc21 [Caroverin, 1-(2-Diethylaminoethyl)-3-(p-methoxy-benzyl)-1,2-dihydrochinoxalin-2-on]
- ORAC-Wert, höher gegenüber allen anderen bekannten Antioxidantien wie Vitamin C, E oder Glutathion: ≤ 1000 fach
